Measured values: patent US20230065953A1, “NOVEL HETEROARYL-TRIAZOLE COMPOUNDS AS PESTICIDES” (Bayer Aktiengesellschaft, priority 2019, published 2023)

Key:
[1] = tested on: larvae of the banded cucumber beetle (Diabrotica balteata); test: Diabrotica balteata spray test; assay type: in vivo; conditions: 168 h, 100 g/ha (=32 μg/well), wheat seeds, after 7 days, read-out: efficacy (seedling growth)
Protocol: Diabrotica Balteata—Spray Test
• Solvent: 78.0 parts by weight of acetone • 1.5 parts by weight of dimethylformamide • Emulsifier: alkylarylpolyglycol ether
Further test concentrations are prepared by dilution with emulsifier containing water.
Soaked wheat seeds (Triticum aestivum) are placed in a multiple well plate filled with agar and some water and are incubated for 1 day to germinate (5 seeds per well). The germinated wheat seeds are sprayed with a test solution containing the desired concentration of the active ingredient. Afterwards each unit is infected with 10-20 larvae of the banded cucumber beetle (Diabrotica balteata).
After 7 days efficacy in % is determined.

[2] = tested on: fall armyworm larvae (Spodoptera frugiperda); test: Spodoptera frugiperda spray test (maize leaf sections); assay type: in vivo; conditions: 168 h
Protocol: Spodoptera frugiperda—Spray Test • Solvent: 78.0 parts by weight acetone • 1.5 parts by weight dimethylformamide • Emulsifier: alkylarylpolyglycol ether
To produce a suitable preparation of active compound, 1 part by weight of active compound is mixed with the stated amount of solvents and is diluted with water, containing an emulsifier concentration of 1000 ppm, to the desired concentration. Further test concentrations are prepared by dilution with emulsifier containing water.
Maize (Zea mays) leaf sections are sprayed with a preparation of the active ingredient of the desired concentration. Once dry, the leaf sections are infested with fall armyworm larvae (Spodoptera frugiperda).
After 7 days mortality in % is determined. 100% means all caterpillars have been killed and 0% means none of the caterpillars have been killed.

Structure (SMILES) | pest or weed control at 32 µg/disc, 100 g/ha [1] [%] | mortality at 100 g/ha [2] [%]
Cc1nc([C@H](C)NC(=O)c2cc(Cl)cc(C(F)(F)F)c2)n(-c2ncc(C(=O)N(C)C)s2)n1 [I-22] | 100 | 100
C[C@H](NC(=O)c1cc(F)cc(C#N)c1)c1ncnn1-c1ncc(C#N)s1 [I-41] | 100 | 100
C[C@H](NC(=O)c1cc(Br)cc(C2(F)CC2)c1)c1ncnn1-c1ncc(C#N)s1 [I-43] | 100 | 100
C[C@H](NC(=O)c1cc(C(F)F)cc(C2CC2)c1)c1ncnn1-c1ncc(C#N)s1 [I-44] | 100 | 100
C[C@H](NC(=O)c1cc(Br)cc(C2CC2(F)F)c1)c1ncnn1-c1ncc(C#N)s1 (stereo partly shown) [I-45] | 100 | 100
C[C@H](NC(=O)c1cc(OC(F)(F)F)cc(S(C)(=O)=O)c1)c1nc(C2CC2)nn1-c1ncc(C#N)s1 [I-48] | 100 | 100
C[C@H](NC(=O)c1cc(F)cc(C(F)F)c1)c1ncnn1-c1ncc(C#N)s1 [I-49] | 100 | 100
C[C@H](NC(=O)c1cc(F)cc(OC(F)F)c1)c1ncnn1-c1ncc(C#N)s1 [I-53] | 100 | 100
C[C@H](NC(=O)c1cc(Br)cc(S(=O)(=O)C(F)(F)F)c1)c1ncnn1-c1ncc(C#N)s1 [I-55] | 100 | 100
C[C@H](NC(=O)c1cc(C2CC2)cc(S(=O)(=O)C(F)(F)F)c1)c1ncnn1-c1ncc(C#N)s1 [I-56] | 100 | 100
C[C@H](NC(=O)c1cc(Br)cc(OC(F)(F)F)c1)c1ncnn1-c1ncc(C#N)s1 [I-57] | 80 | 100
C[C@H](NC(=O)c1cc(Br)cc(C#N)c1)c1ncnn1-c1ncc(C#N)s1 [I-58] | 100 | 
C[C@H](NC(=O)c1cc(OC(F)(F)F)cc(S(=O)(=O)C2CC2)c1)c1ncnn1-c1ncc(C#N)s1 [I-61] | 100 | 100
CCS(=O)(=O)c1cc(OC(F)(F)F)cc(C(=O)N[C@@H](C)c2ncnn2-c2ncc(C#N)s2)c1 [I-62] | 100 | 100
CC(C)S(=O)(=O)c1cc(OC(F)(F)F)cc(C(=O)N[C@@H](C)c2ncnn2-c2ncc(C#N)s2)c1 [I-63] | 100 | 
Cc1nc([C@H](C)NC(=O)c2cc(Cl)cc(C(F)(F)F)c2)n(-c2ncc(C(=O)NC(C)C)s2)n1 [I-68] | 100 | 100
CC(NC(=O)c1cc(Br)cc(OCC(F)(F)F)c1)c1ncnn1-c1ncc(C#N)s1 (stereo not shown) [I-88] | 100 | 100
Cc1nc([C@H](C)NC(=O)c2cc(Br)cc(OCC(F)(F)F)c2)n(-c2ncc(C#N)s2)n1 [I-92] | 100 | 100
C[C@H](NC(=O)c1cc(Cl)cc(C#N)c1)c1ncnn1-c1ncc(C#N)s1 [I-101] | 100 | 100
C[C@H](NC(=O)c1cc(Cl)cc(S(=O)(=O)C(F)(F)F)c1)c1ncnn1-c1ncc(C(=O)N(C)C)s1 [I-116] | 100 | 100
CNC(=O)c1cnc(-n2ncnc2[C@H](C)NC(=O)c2cc(Cl)cc(C3CC3)c2)s1 [I-122] | 100 | 100
C[C@H](NC(=O)c1cc(OC(F)F)cc(S(C)(=O)=O)c1)c1nc(C2CC2)nn1-c1ncc(C#N)s1 [I-132] | 100 | 100

Structure (SMILES) | pest or weed control at 32 µg/disc, 100 g/ha [1] [%] | mortality at 100 g/ha [2] [%]
C[C@H](NC(=O)c1cc(OC(F)F)cc(S(=O)(=O)C2CC2)c1)c1nc(C2CC2)nn1-c1ncc(C#N)s1 [I-133] | 100 | 100
C[C@H](NC(=O)c1cc(C#N)cc(OC(F)(F)F)c1)c1ncnn1-c1ncc(C#N)s1 [I-135] | 100 | 100
C[C@H](NC(=O)c1cc(Cl)nc(OC(F)(F)F)c1)c1ncnn1-c1ncc(C#N)s1 [I-139] | 100 | 100
CNC(=O)c1cnc(-n2ncnc2[C@H](C)NC(=O)c2cc(Cl)cc(S(=O)(=O)c3ccc(Cl)cc3)c2)s1 [I-140] | 100 | 100
C[C@H](NC(=O)c1cc(Cl)cc(S(=O)(=O)c2ccc(Cl)cc2)c1)c1ncnn1-c1ncc(C(=O)N(C)C)s1 [I-141] |  | 100
C[C@H](NC(=O)c1cc(Cl)cc(S(=O)(=O)c2ccc(Cl)cc2)c1)c1ncnn1-c1ncc(C#N)s1 [I-143] | 80 | 100
C[C@H](NC(=O)c1cc(OC(F)(F)F)cc(OC(F)(F)F)c1)c1ncnn1-c1ncc(C#N)s1 [I-144] | 100 | 100
C[C@H](NC(=O)c1cc(Br)cc(OC(F)(F)F)c1)c1ncnn1-c1ncc(C(=O)N(C)C2CC2)s1 [I-145] | 100 | 100
C[C@H](NC(=O)c1cc(Cl)cc(S(=O)(=O)C(F)F)c1)c1ncnn1-c1ncc(C(=O)N(C)C2CC2)s1 [I-146] | 100 | 100
C[C@H](NC(=O)c1cc(OC(F)(F)F)cc(S(C)(=O)=O)c1)c1ncnn1-c1ncc(C(=O)N(C)C2CC2)s1 [I-147] | 100 | 100
C[C@H](NC(=O)c1cc(Cl)cc(S(=O)(=O)c2ccc(Cl)cc2)c1)c1ncnn1-c1ncc(C(=O)N(C)C2CC2)s1 [I-149] | 100 | 100
C[C@H](NC(=O)c1cc(C(F)F)cc(C(F)F)c1)c1ncnn1-c1ncc(C(=O)N(C)C2CC2)s1 [I-150] | 100 | 100
C[C@H](NC(=O)c1cc(C(F)(F)F)cc(C(F)(F)F)c1)c1ncnn1-c1ncc(C(=O)N(C)C2CC2)s1 [I-151] | 100 | 100
C[C@H](NC(=O)c1cc(Cl)cc(S(=O)(=O)C(F)(F)F)c1)c1ncnn1-c1ncc(C(=O)N(C)C2CC2)s1 [I-153] | 100 | 100
C[C@H](NC(=O)c1cc(C(F)(F)F)cc(C(F)(F)F)c1)c1nc(C2CC2)nn1-c1ncc(C(=O)N(C)C)s1 [I-156] | 100 | 100
C[C@H](NC(=O)c1cc(OC(F)(F)F)cc(C2CC2)c1)c1nc(C2CC2)nn1-c1ncc(C(=O)N(C)C)s1 [I-157, 2-(3-cyclopropyl-5-{(1S)-1-[3-cyclopropyl-5-(trifluoromethoxy)benzamido]ethyl}-1H-1,2,4-triazol-1-yl)-N,N-dimethyl-1,3-thiazole-5-carboxamide] | 100 | 100
Cc1nc([C@H](C)NC(=O)c2cc(OC(F)(F)F)cc(S(C)(=O)=O)c2)n(-c2ncc(C#N)s2)n1 [I-159] | 100 | 100
Cc1nc([C@H](C)NC(=O)c2cc(Cl)cc(S(=O)(=O)C(F)(F)F)c2)n(-c2ncc(C#N)s2)n1 [I-160] | 100 | 100
Cc1nc([C@H](C)NC(=O)c2cc(S(=O)(=O)C(F)(F)F)cc(S(=O)(=O)C(F)(F)F)c2)n(-c2ncc(C#N)s2)n1 [I-162] | 100 | 100
Cc1nc([C@H](C)NC(=O)c2cc(Cl)cc(S(=O)(=O)C3CC3)c2)n(-c2ncc(C#N)s2)n1 [I-163] | 100 | 100
COc1nc(C(C)NC(=O)c2cc(OC(F)(F)F)cc(S(=O)(=O)C3CC3)c2)n(-c2ncc(C#N)s2)n1 (stereo not shown) [I-200, N-{1-[1-(5-cyano-1,3-thiazol-2-yl)-3-methoxy-1H-1,2,4-triazol-5-yl]ethyl}-3-(cyclopropylsulfonyl)-5-(trifluoromethoxy)benzamide] | 100 | 
